Assay results published in patent US12570656B2, “Purine compounds for treating disorders” (MARVEL BIOTECHNOLOGY, priority 2020, dated 2026).
“And” between values parts separate entries of the source, which are not always exact repeats. Equal entries are not always repeated. Where two headings read alike, the source gives them in different places.

How the values were obtained:
[1] = Brain pharmacokinetics and brain/plasma ratio in male CD-1 mice (1 mg/kg i.v.); type: in vivo; settings: for concentration at 5 min / concentration at 0.25 h / concentration at 0.5 h / concentration at 1 h / concentration at 2 h / concentration at 4 h / concentration at 6 h / concentration at 8 h: intravenous
Method: (§1) Male CD-1 mice were given either bolus 1 mg/kg i.v. or 3 mg/kg p.o. of the indicated compounds and plasma or brain concentrations were measured.
(§2) Where: • C0 concentration extrapolated to time zero following an i.v. dose • tmax time at which maximum concentration is observed • Cmax maximum observed concentration • Apparent t1/2 apparent terminal half-life • AUC0-tlast area under the concentration vs time curve from time 0 to the time of the last measurable concentration • AUC0-inf area under the concentration vs time curve from time 0 to infinity • CL systemic clearance • MRT0-inf mean residence time from time zero to infinity • Vss steady-state volume of distribution • F oral bioavailability=(Dose^iv*AUC^po)/(Dose^po*AUC^iv)*100

[2] = Plasma pharmacokinetics in male CD-1 mice (1 mg/kg i.v. or 3 mg/kg p.o.); settings: CD-1, mouse, in vivo
Method: as §1, §2

[3] = male, CD-1, mouse, iv, brain, i.v. 1 mg/kg

With `CCn1c(=O)c2c(nc(/C=C/c3ccc(OC)c(OC)c3)n2C)n(CC)c1=O` [Istradefylline, reference compound] as the compound, how does the Brain concentration ([1]; 1 mg/kg bolus i.v., 5 min, individual animals 1-3) read?
The Brain concentration was 423 ng/g and 691 ng/g.

What about the Brain concentration ([1]; 1 mg/kg bolus i.v., 0.25 h, individual animals 1-3) of the same compound?
Its Brain concentration is 474 ng/g and 418 ng/g.

What about the Brain concentration ([1]; 1 mg/kg bolus i.v., 0.5 h, individual animals 1-3) of the same compound?
Its Brain concentration is 230 ng/g and 235 ng/g.

And the Brain concentration ([1]; 1 mg/kg bolus i.v., 1 h, individual animals 1-3)?
The Brain concentration was 209 ng/g and 237 ng/g.

What about the Brain concentration ([1]; 1 mg/kg bolus i.v., 2 h, individual animals 1-3) of the same compound?
The Brain concentration was 180 ng/g and 156 ng/g.

What about the Brain concentration ([1]; 1 mg/kg bolus i.v., 4 h, individual animals 1-3) of the same compound?
Its Brain concentration is 76.8 ng/g and 79.5 ng/g.

What about the Brain concentration ([1]; 1 mg/kg bolus i.v., 6 h, individual animals 1-3) of the same compound?
The Brain concentration was 50.1 ng/g and 32.6 ng/g.

What about the Brain concentration ([1]; 1 mg/kg bolus i.v., 8 h, individual animals 1-3) of the same compound?
The Brain concentration was 22.2 ng/g and 17.1 ng/g.

And the AUC0-tlast ([1]; brain, i.v. 1 mg/kg)?
The AUC0-tlast was 938 ng·h/g.

What about the AUC(0-inf) ([1]; brain, i.v. 1 mg/kg) of the same compound?
The AUC(0-inf) was 1011 ng·h/g.

What about the Kp at 5 min ([1]; male, CD-1, mouse, brain and plasma, iv, 1 mg/kg, 1 mg/kg bolus i.v., 5 min, individual animals 1-3, read-out: Brain/plasma concentration ratio) of the same compound?
Its Kp at 5 min is 0.726.

And the Kp at 5 min ([1]; male, CD-1, mouse, brain and plasma, iv, 1 mg/kg, 1 mg/kg bolus i.v., 5 min, read-out: Brain/plasma concentration ratio, Mean)?
The Kp at 5 min was 0.828.

And the Kp at 0.25 h ([1]; male, CD-1, mouse, brain and plasma, iv, 1 mg/kg, 1 mg/kg bolus i.v., 0.25 h, individual animals 1-3, read-out: Brain/plasma concentration ratio)?
Its Kp at 0.25 h is 0.42.

What about the Kp at 0.25 h ([1]; male, CD-1, mouse, brain and plasma, iv, 1 mg/kg, 1 mg/kg bolus i.v., 0.25 h, read-out: Brain/plasma concentration ratio, Mean) of the same compound?
Its Kp at 0.25 h is 0.516.

What about the Kp at 0.5 h ([1]; male, CD-1, mouse, brain and plasma, iv, 1 mg/kg, 1 mg/kg bolus i.v., 0.5 h, read-out: Brain/plasma concentration ratio, Mean) of the same compound?
Its Kp at 0.5 h is 0.483.

And the Kp at 8 h ([1]; male, CD-1, mouse, brain and plasma, iv, 1 mg/kg, 1 mg/kg bolus i.v., 8 h, individual animals 1-3, read-out: Brain/plasma concentration ratio)?
Its Kp at 8 h is 2.76.

And the Kp at 8 h ([1]; male, CD-1, mouse, brain and plasma, iv, 1 mg/kg, 1 mg/kg bolus i.v., 8 h, read-out: Brain/plasma concentration ratio, Mean)?
The Kp at 8 h was 2.25.

What about the concentration at 5 min ([1]; male, CD-1, mouse, brain, 1 mg/kg, 1 mg/kg bolus i.v., 5 min, individual animals 1-3, read-out: Brain concentration) of the same compound?
The concentration at 5 min was 545 ng/g.

What about the concentration at 5 min ([1]; male, CD-1, mouse, brain, 1 mg/kg, 1 mg/kg bolus i.v., 5 min, read-out: Brain concentration, Mean) of the same compound?
Its concentration at 5 min is 553 ng/g.

What about the concentration at 0.25 h ([1]; male, CD-1, mouse, brain, 1 mg/kg, 1 mg/kg bolus i.v., 0.25 h, individual animals 1-3, read-out: Brain concentration) of the same compound?
Its concentration at 0.25 h is 272 ng/g.

And the concentration at 0.25 h ([1]; male, CD-1, mouse, brain, 1 mg/kg, 1 mg/kg bolus i.v., 0.25 h, read-out: Brain concentration, Mean)?
Its concentration at 0.25 h is 388 ng/g.

What about the concentration at 0.5 h ([1]; male, CD-1, mouse, brain, 1 mg/kg, 1 mg/kg bolus i.v., 0.5 h, individual animals 1-3, read-out: Brain concentration) of the same compound?
Its concentration at 0.5 h is 372 ng/g.

And the concentration at 0.5 h ([1]; male, CD-1, mouse, brain, 1 mg/kg, 1 mg/kg bolus i.v., 0.5 h, read-out: Brain concentration, Mean)?
The concentration at 0.5 h was 279 ng/g.

And the concentration at 1 h ([1]; male, CD-1, mouse, brain, 1 mg/kg, 1 mg/kg bolus i.v., 1 h, individual animals 1-3, read-out: Brain concentration)?
Its concentration at 1 h is 225 ng/g.

What about the concentration at 1 h ([1]; male, CD-1, mouse, brain, 1 mg/kg, 1 mg/kg bolus i.v., 1 h, read-out: Brain concentration, Mean) of the same compound?
Its concentration at 1 h is 224 ng/g.

What about the concentration at 2 h ([1]; male, CD-1, mouse, brain, 1 mg/kg, 1 mg/kg bolus i.v., 2 h, individual animals 1-3, read-out: Brain concentration) of the same compound?
Its concentration at 2 h is 171 ng/g.

And the concentration at 2 h ([1]; male, CD-1, mouse, brain, 1 mg/kg, 1 mg/kg bolus i.v., 2 h, read-out: Brain concentration, Mean)?
Its concentration at 2 h is 169 ng/g.

What about the concentration at 4 h ([1]; male, CD-1, mouse, brain, 1 mg/kg, 1 mg/kg bolus i.v., 4 h, individual animals 1-3, read-out: Brain concentration) of the same compound?
Its concentration at 4 h is 107 ng/g.

What about the concentration at 4 h ([1]; male, CD-1, mouse, brain, 1 mg/kg, 1 mg/kg bolus i.v., 4 h, read-out: Brain concentration, Mean) of the same compound?
The concentration at 4 h was 87.8 ng/g.

And the concentration at 6 h ([1]; male, CD-1, mouse, brain, 1 mg/kg, 1 mg/kg bolus i.v., 6 h, individual animals 1-3, read-out: Brain concentration)?
The concentration at 6 h was 39.8 ng/g.

What about the concentration at 6 h ([1]; male, CD-1, mouse, brain, 1 mg/kg, 1 mg/kg bolus i.v., 6 h, read-out: Brain concentration, Mean) of the same compound?
The concentration at 6 h was 40.8 ng/g.

And the concentration at 8 h ([1]; male, CD-1, mouse, brain, 1 mg/kg, 1 mg/kg bolus i.v., 8 h, individual animals 1-3, read-out: Brain concentration)?
Its concentration at 8 h is 33.4 ng/g.

And the concentration at 8 h ([1]; male, CD-1, mouse, brain, 1 mg/kg, 1 mg/kg bolus i.v., 8 h, read-out: Brain concentration, Mean)?
Its concentration at 8 h is 24.2 ng/g.

And the Kp at 1 h ([1]; male, CD-1, mouse, brain/plasma, iv, 1 mg/kg, 1 mg/kg bolus i.v., 1 h, individual animals 1-3, read-out: Brain/plasma concentration ratio)?
The Kp at 1 h was 0.534.

And the Kp at 1 h ([1]; male, CD-1, mouse, brain/plasma, iv, 1 mg/kg, 1 mg/kg bolus i.v., 1 h, read-out: Brain/plasma concentration ratio, Mean)?
The Kp at 1 h was 0.551.

And the Kp at 2 h ([1]; male, CD-1, mouse, brain/plasma, iv, 1 mg/kg, 1 mg/kg bolus i.v., 2 h, individual animals 1-3, read-out: Brain/plasma concentration ratio)?
Its Kp at 2 h is 0.71.

What about the Kp at 2 h ([1]; male, CD-1, mouse, brain/plasma, iv, 1 mg/kg, 1 mg/kg bolus i.v., 2 h, read-out: Brain/plasma concentration ratio, Mean) of the same compound?
Its Kp at 2 h is 0.655.

What about the Kp at 4 h ([1]; male, CD-1, mouse, brain/plasma, iv, 1 mg/kg, 1 mg/kg bolus i.v., 4 h, individual animals 1-3, read-out: Brain/plasma concentration ratio) of the same compound?
Its Kp at 4 h is 0.87.

What about the Kp at 4 h ([1]; male, CD-1, mouse, brain/plasma, iv, 1 mg/kg, 1 mg/kg bolus i.v., 4 h, read-out: Brain/plasma concentration ratio, Mean) of the same compound?
Its Kp at 4 h is 1.

And the Kp at 6 h ([1]; male, CD-1, mouse, brain/plasma, iv, 1 mg/kg, 1 mg/kg bolus i.v., 6 h, read-out: Brain/plasma concentration ratio, Mean)?
The Kp at 6 h was 0.96.

What about the Kp ([1]; male, CD-1, mouse, brain/plasma, iv, 1 mg/kg, i.v. 1 mg/kg, read-out: Brain/plasma AUC0-inf ratio) of the same compound?
Its Kp is 0.701.

What about the Cmax [1, 3] of the same compound?
The Cmax was 553 ng/g.

What about the Tmax [1, 3] of the same compound?
The Tmax was 5 min.

What about the half-life ([1]; male, CD-1, mouse, iv, brain, i.v. 1 mg/kg, read-out: Apparent t1/2 (converted)) of the same compound?
Its half-life is 2.1 h.

And the MRT inf ([1]; male, CD-1, mouse, iv, brain, i.v. 1 mg/kg, read-out: MRT0-inf)?
Its MRT inf is 2.96 h.

What about the bioavailability [2] of the same compound?
Its bioavailability is 30.9%.

And the AUC(0-inf) ([2]; iv, 1 mg/kg)?
Its AUC(0-inf) is 1440 ng·h/mL.

What about the AUC(0-t) ([2]; iv, 1 mg/kg) of the same compound?
Its AUC(0-t) is 1420 ng·h/mL.

What about the Cmax ([2]; iv, 1 mg/kg) of the same compound?
Its Cmax is 745 ng/mL.

And the MRT inf ([2]; iv, 1 mg/kg)?
The MRT inf was 1.96 h.

And the Tmax ([2]; iv, 1 mg/kg)?
Its Tmax is 0.25 h.

What about the Vd ([2]; iv, 1 mg/kg) of the same compound?
The Vd was 1.36 L/kg.

What about the clearance ([2]; iv, 1 mg/kg) of the same compound?
The clearance was 11.6 mL/min/kg.

And the half-life ([2]; iv, 1 mg/kg)?
The half-life was 1.35 h.

What about the AUC(0-inf) ([2]; po, 3 mg/kg) of the same compound?
The AUC(0-inf) was 1340 ng·h/mL.

And the AUC(0-t) ([2]; po, 3 mg/kg)?
Its AUC(0-t) is 1340 ng·h/mL.

What about the Cmax ([2]; po, 3 mg/kg) of the same compound?
Its Cmax is 250 ng/mL.

What about the MRT inf ([2]; po, 3 mg/kg) of the same compound?
The MRT inf was 3.82 h.

What about the Tmax ([2]; po, 3 mg/kg) of the same compound?
The Tmax was 1 h.

And the half-life ([2]; po, 3 mg/kg)?
Its half-life is 2.2 h.
